According to patent US11013748B2, “Budesonide prodrug” (University of Nizwa, priority 2019, dated 2021):
Converted amounts (≈) assume the structure as drawn.

How the values were obtained:
[1] = Solubility studies of Bu and BuP in buffer media; type: physicochemical; conditions: thermodynamic from solid
Description: Solubility studies of the pure Bu and prepared BuP were determined (n=6) by making saturated solutions of HCl buffer, phthalate buffer, phosphate buffer of pH 1.2, 4.0, 6.8 (with and without 10% w/v rat fecal content), and 7.4 respectively. The solutions, kept separately in a conical flask, were subjected to ultrasonic waves in an ultrasonic bath (Sonorex, Bandelin Electronic, Germany) for 30 minutes. Fiber optic probes were inserted at 0 and 30 minutes, and readings taken at 232 nm for Bu and 340 nm for BuP using the fiber optics system

[2] = Partition coefficient, Hansch method (n-octanol/buffer); type: physicochemical
Description: The Hansch method was used to determine the partition coefficient between the n-octanol and phosphate buffer (both 10 mL) system. Different pH systems of 1.2, 4.0, 6.8, and 7.4, and n-octanol and double distilled water (both 10 mL, pH 5.8) were prepared. The buffers, n-octanol, and double distilled water were added to a separating funnel. The phases were shaken for 60 minutes. to attain saturation. Ten milligrams of Bu and BuP were added to respective separators and were given 30 minutes of shaking for the drug to achieve sufficient distribution in both the phases. The separators were kept still for 5 minutes, and then the phases were separated. The phases were suitably diluted and analyzed (n=6) using the fiber optics with the UV detector set at 232 nm and 340 nm for Bu and BuP, respectively.

colitis in rats = conditions: literature; cited from earlier work

CCCC1O[C@@H]2C[C@H]3[C@@H]4CCC5=CC(=O)C=C[C@]5(C)[C@H]4[C@@H](O)C[C@]3(C)[C@]2(C(=O)CO)O1 (stereo partly drawn) [Bu, budesonide]
solubility at 0 min ([1]; aqueous buffer, Phosphate buffer, pH 6.8): 187 ± 1.98 µg/mL (≈ 435 µM)
solubility at 30 min ([1]; aqueous buffer, Phosphate buffer, pH 6.8, 30 min): 356.9 ± 0.99 µg/mL (≈ 829 µM)
solubility at 0 min ([1]; aqueous buffer, Phosphate buffer, pH 7.4): 231 ± 2.12 µg/mL (≈ 537 µM)
solubility at 30 min ([1]; aqueous buffer, Phosphate buffer, pH 7.4, 30 min): 476.1 ± 1.99 µg/mL (≈ 1110 µM)
solubility at 0 min ([1]; aqueous buffer, Phthalate buffer, pH 4.0): 68.2 ± 0.98 µg/mL (≈ 158 µM)
solubility at 30 min ([1]; aqueous buffer, Phthalate buffer, pH 4.0, 30 min): 148 ± 1.32 µg/mL (≈ 344 µM)
solubility at 0 min ([1]; phosphate buffer with 10% w/v rat fecal content, plasma or biological fluid, Phosphate buffer, pH 6.8 + rat fecal content): 187.1 ± 0.89 µg/mL
solubility at 30 min ([1]; phosphate buffer with 10% w/v rat fecal content, plasma or biological fluid, Phosphate buffer, pH 6.8 + rat fecal content, 30 min): 356.9 ± 1.76 µg/mL
solubility at 0 min ([1]; simulated gastric fluid, HCl buffer, pH 1.2): 25.1 ± 1.43 µg/mL (≈ 58.3 µM)
solubility at 30 min ([1]; simulated gastric fluid, HCl buffer, pH 1.2, 30 min ultrasonic bath): 88.12 ± 0.67 µg/mL (≈ 205 µM)
solubility at 0 min ([1]; Double distilled water, pH 5.8): 121 ± 1.26 µg/mL (≈ 281 µM)
solubility at 30 min ([1]; Double distilled water, pH 5.8, 30 min): 209 ± 2.13 µg/mL (≈ 486 µM)
logP ([2]; n-octanol / HCl buffer, pH 1.2): 3.12 ± 0.12
logP ([2]; n-octanol / double distilled water, pH 5.8): 2.87 ± 1.05
logP ([2]; n-octanol / phosphate buffer, pH 6.8): 2.51 ± 0.36
logP ([2]; n-octanol / phosphate buffer, pH 7.4): 2.13 ± 1.09
logP ([2]; n-octanol / phthalate buffer, pH 4.0): 3.01 ± 0.54

CCCC1OC2CC3C4CCC5=CC(=O)C=CC5(C)C4C(O)CC3(C)C2(C(=O)COC2OC(C(=O)O)C(O)C(O)C2O)O1 [budesonide-beta-D-glucuronide]
effect on colitis in rats (colitis in rats): accelerate the treatment of colitis in rats
